Measured values: US7922998B2, “Gastrin releasing peptide compounds” (Bracco Imaging S.p.A., priority 2003, dated 2011)
“Also recorded” adds a separate entry of the source.

Tests used:
NMB-R = biological target: T1, NMB-R (Rattus norvegicus, UniProt P24053); assay: Competition with 125I-NMB for NMB-R in C6 cells (Example LX); type: binding, rodent; conditions: for receptor subtype preference (GRP-R / NMB-R): in words, from IC50 with 125I-NMB (C6) and 125I-BBN (PC3), cut off 10× the IC50 of [Tyr4]-BBN
T1 construct: C6, an NMB-R expressing rodent glioblastoma cell line; host or cells: C6 glioma cells, intact and plated
T1 sequence (P24053 1-390): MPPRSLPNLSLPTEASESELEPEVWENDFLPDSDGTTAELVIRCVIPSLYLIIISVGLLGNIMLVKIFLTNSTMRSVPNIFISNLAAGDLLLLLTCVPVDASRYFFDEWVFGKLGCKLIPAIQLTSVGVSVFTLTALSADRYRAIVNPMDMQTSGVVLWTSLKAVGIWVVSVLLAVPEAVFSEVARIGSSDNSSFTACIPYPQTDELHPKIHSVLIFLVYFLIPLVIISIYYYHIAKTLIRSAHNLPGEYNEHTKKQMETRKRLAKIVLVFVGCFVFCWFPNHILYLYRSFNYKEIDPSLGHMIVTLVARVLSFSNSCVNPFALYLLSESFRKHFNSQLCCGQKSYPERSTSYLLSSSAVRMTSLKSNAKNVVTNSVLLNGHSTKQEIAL
Method: Two cell lines, C6, an NMB-R expressing rodent glioblastoma cell line and PC3, a GRP-R expressing human prostate cancer cell line, were used in this assay. The affinity of various unlabeled compounds for each receptor subtype (NMB-R and GRP-R) was determined indirectly by measuring its ability to compete with the binding of ^125I-NMB or ^125I-BBN to its corresponding receptors in C6 and PC3 cells.
Cells for the assays were plated at a concentration of 9.6×10^4/well in 48 well poly-lysine coated plates (Beckton Dickinson Biocoat).
• Custom made ^125I-[Tyr^0]NMB, >2.0 Ci/μmole (Amersham Life Science) [^125I-NMB] and commercially available ^125I-[Tyr^4]BBN, >2.0 Ci/μmole (Perkin Elmer Life Science) [^125I-BBN] were used as radioligands.
• Using a 48-well plate assay system (for C6 study) competition experiments were performed using ^125I-NMB. […] Selection of compounds for the assay was based on linker subtype.
The binding parameters obtained from the studies were analyzed using a one-site competition non-linear regression analysis with GraphPad Prism. The relative affinity of various compounds for NMB-R in C6 cells were compared with those obtained using commercially available [Tyr^4]-BBN and [Tyr^0]-NMB. To distinguish the GRP-R preferring compounds from NMB-R plus GRP-R preferring compounds, IC50 values obtained for each compound was compared with those obtained from [Tyr^0]-BBN with ^125I-NMB on C6 cells.

GRP-R = biological target: T2, GRP-R (Homo sapiens, UniProt P30550); assay: Competition assay of modified BBN analogs with 125I-BBN for GRP-R in PC3 cells (Example LXI); type: binding; conditions: in words
T2 construct: host or cells: PC3 human prostate cancer cells, intact and plated
T2 sequence (P30550 whole entry): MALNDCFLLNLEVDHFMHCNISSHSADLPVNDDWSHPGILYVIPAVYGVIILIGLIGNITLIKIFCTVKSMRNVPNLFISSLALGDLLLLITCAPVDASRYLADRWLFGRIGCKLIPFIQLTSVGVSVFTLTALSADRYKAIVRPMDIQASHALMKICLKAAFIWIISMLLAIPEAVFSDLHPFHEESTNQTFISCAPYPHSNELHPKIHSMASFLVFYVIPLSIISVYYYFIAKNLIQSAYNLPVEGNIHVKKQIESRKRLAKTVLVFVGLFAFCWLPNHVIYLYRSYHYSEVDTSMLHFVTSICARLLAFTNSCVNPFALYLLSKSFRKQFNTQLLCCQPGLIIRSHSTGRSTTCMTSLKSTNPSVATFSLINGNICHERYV
Method: • PC3 cell lines were obtained from ATCC(CRL-1435) and cultured in RPMI 1640 (ATCC) supplemented with 2 mM L-glutamine, 1.5 g/L Sodium bicarbonate, 10 mM HEPES and 10% FBS. […] PC3 cells for the assays were plated at a concentration of 2.0×10^4 cells/well in a 96-well white/clear bottom plates (Falcon Optilux-I). Plates were used for the assays on day 2 of the post-plating.
• RPMI 1640 (ATCC) containing 25 mM HEPES, 0.2% BSA fraction V, 1.0 mM AEBSF (CAS #3087-99-7) and 0.1% Bacitracin (CAS #1405-87-4), pH 7.4.
• ^125I-BBN (Cat # NEX258) was obtained from PerkinElmer Life Sciences.
• All compounds tested were dissolved in binding buffer and appropriate dilutions were also done in binding buffer. PC3 cells for assay were seeded at a concentration of 2.0×10^4/well either in 96-well black/clear collagen I cellware plates (Beckton Dickinson Biocoat). Plates were used for binding studies on day 2 post-plating. The plates were checked for confluency (>90% confluent) prior to assay. […] The studies were conducted with an assay volume of 75 μl per well. Triplicate wells were used for each data point. After the addition of the appropriate solutions, plates were incubated for 1 hour at 4° C. Incubation was ended by the addition of 200 uL of ice-cold incubation buffer. Plates were washed 5 times and blotted dry. Radioactivity was detected using either a LKB CompuGamma counter or a microplate scintillation counter.

PC3 cells = assay: Internalization & Efflux Assay in PC3 cells; type: cell-based, human; conditions: for Internalisation (40 minutes): 40 min at 37° C., Lu-177 complexes (125I-BBN as comparator); for Efflux (2 h): percent efflux 2 h after loading 40 min at 37° C., Lu-177 complexes
Method: • These studies were conducted in a 96-well plate. […] Incubations were stopped by the addition of 200 μl of ice-cold binding buffer. Plates were washed twice with binding buffer. To remove surface-bound radioligand, the cells were incubated with 0.2M acetic acid (in saline), pH 2.8 for 2 min. Plates were centrifuged and the acid wash media were collected to determine the amount of radioactivity which was not internalized. The cells were collected to determine the amount of internalized ^125I-BBN, and all samples were analyzed in the gamma counter. Data for the internalization assay was normalized by comparing counts obtained at the various time points with the counts obtained at the final time point (T40 min). • For the efflux studies, after loading the PC3 cells with ^125I-BBN or radiolabeled compounds of the invention for 40 min at 37° C., the unbound material was filtered, and the % of internalization was determined as above. The cells were then resuspended in binding buffer at 37° C. for up to 3 h.

[1] = tested on: PC3 tumor-bearing nude mice; type: in vivo, mouse; conditions: in words; for uptake in the tumor compared with control: 1 and 24 h
Method: • Low dose pharmacokinetic studies (e.g., biodistribution studies) were performed using the below-identified compounds of the invention in xenografted, PC3 tumor-bearing nude mice ([Ncr]-Foxn1). In all studies, mice were administered 100 μL of ^177Lu-labeled test compound at 200 μCi/kg, i.v., with a residence time of 1 and 24 h per group (n=3-4). Tissues were analyzed in an LKB 1282 CompuGamma counter with appropriate standards.

[2] = tested on: PC3 tumor-bearing nude mouse model; assay: Radiotherapy Short Term Efficacy Study; type: in vivo
Method: • Radiotherapy studies were performed using the PC3 tumor-bearing nude mouse model. […] (n=12 for each treatment group for up to 30 days, and n=36 for the pooled untreated control group for up to 31 days). […] The subjects were housed in a barrier environment for the duration of the study. Body weight and tumor size (by caliper measurement) were collected on each subject 3 times per week for the duration of the study. Criteria for early termination included: death; loss of total body weight (TBW) equal to or greater than 20%; tumor size equal to or greater than 2 cm^3.

[3] = tested on: PC3 tumor-bearing nude mouse model; assay: Radiotherapy Long Term Efficacy Study; type: in vivo; conditions: 177Lu labeled, 30 mCi/kg, up to 120 days; vs same controls; FIG. 15B
[4] = Table 10, class cut off 10x the IC50 of [Tyr4]-BBN with 125I-NMB on C6 cells, yes or dash
[5] = 177Lu labeled, 30 mCi/kg, up to 30 days, vs untreated and vs DO3A-monoamide-Aoc-QWAVGHLM-NH2 control, FIG. 15A

## DO3A-monoamide-N-4-aminoethyl-N-1-piperazineacetic acid-BBN(7-14) [Compound L89]
NMB-R; [4]
  GRP-R (preferentially binds GRP-R): yes
NMB-R
  receptor subtype preference (GRP-R / NMB-R): GRP-R selectivity

## N-[(3β,5β,12α)-3-[[[[[4,7,10-Tris(carboxymethyl)-1,4,7,10-tetraazacyclododec-1-yl]acetyl]amino]acetyl]amino]-4-hydrazinobenzoyl-L-glutaminyl-L-tryptophyl-L-alanyl-L-valyl-glycyl-L-histidyl-L-leucyl-L-methioninamide [Compound L202]
NMB-R; [4]
  GRP-R & NMB-R (binds both with similar affinity): yes

## N-[(3β,5β,12α)-3-[[[4,7,10-Tris(carboxymethyl)-1,4,7,10-tetraazacyclododec-1-yl]acetyl]amino]-glycyl-4-aminobenzoyl-L-leucyl-L-tryptophyl-L-alanyl-L-valinyl-glycyl-L-serinyl-L-phenylalanyl-L-methioninamide [Compound L225]
GRP-R
  competition / activity at GRP-R: reduces competition at the GRP-R

## N,N-dimethylglycine-Ser-Cys(Acm)-Gly-Asp-8-amino-3,6-dioxaoctanoic acid-BBN(7-14) [Compound L3]
NMB-R; [4]
  GRP-R & NMB-R (binds both with similar affinity): yes

## CSCC[C@H](NC(=O)[C@H](CC(C)C)NC(=O)[C@H](Cc1c[nH]cn1)NC(=O)CNC(=O)[C@@H](NC(=O)[C@H](C)NC(=O)[C@H](Cc1c[nH]c2ccccc12)NC(=O)[C@H](CCC(N)=O)NC(=O)CC[C@@H](C)[C@H]1CC[C@H]2[C@@H]3CC[C@@H]4C[C@@H](NC(=O)CNC(=O)CN5CCN(CC(=O)O)CCN(CC(=O)O)CCN(CC(=O)O)CC5)CC[C@]4(C)[C@H]3C[C@H](O)[C@]12C)C(C)C)C(N)=O [Compound L63, N-[(3β,5β,12α)-3-[[[[[4,7,10-Tris(carboxymethyl)-1,4,7,10-tetraazacyclododec-1-yl]acetyl]amino]acetyl]amino]-12-hydroxy-24-oxocholan-24-yl]-L-glutaminyl-L-tryptophyl-L-alanyl-L-valyl-glycyl-L-histidyl-L-leucyl-L-methioninamide]
PC3 cells
  Internalisation (40 minutes): 64%
  Efflux (2 h): 0%
[1]
  uptake in the mouse pancreas compared with control: much higher
  uptake in the tumor compared with control: high tumour uptake
[1]; vs DO3A-monoamide-Aoc-QWAVGHLM-NH2
  distribution of radioactivity in the blood, liver and kidneys compared with control: increased blood and liver values at early times
[2]; [5]
  survival: increased survival
NMB-R; [4]
  GRP-R & NMB-R (binds both with similar affinity): yes
NMB-R
  receptor subtype preference (GRP-R / NMB-R): dual affinity for both GRP-R and NMB-R

## N,N-dimethylglycine-Ser-Cys(Acm)-Gly-N-1-piperazineacetic acid-8-amino-3,6-dioxaoctanoic acid-BBN(7-14) [Compound L36]
NMB-R; [4]
  GRP-R & NMB-R (binds both with similar affinity): yes

## CSCC[C@H](NC(=O)[C@H](CC(C)C)NC(=O)[C@H](Cc1c[nH]cn1)NC(=O)CNC(=O)[C@@H](NC(=O)[C@H](C)NC(=O)[C@H](Cc1c[nH]c2ccccc12)NC(=O)[C@H](CCC(N)=O)NC(=O)CC[C@@H](C)[C@H]1CC[C@H]2[C@@H]3[C@H](O)C[C@@H]4C[C@@H](NC(=O)CNC(=O)CN5CCN(CC(=O)O)CCN(CC(=O)O)CCN(CC(=O)O)CC5)CC[C@]4(C)[C@H]3C[C@H](O)[C@]12C)C(C)C)C(N)=O [Compound L64, N-[(3β,5β,7α,12α)-3-[[[[[4,7,10-Tris(carboxymethyl)-1,4,7,10-tetraazacyclododec-1-yl]acetyl]amino]acetyl]amino]-7,12-dihydroxy-24-oxocholan-24-yl]-L-glutaminyl-L-tryptophyl-L-alanyl-L-valyl-glycyl-L-histidyl-L-leucyl-L-methioninamide]
PC3 cells
  Internalisation (40 minutes): 69%
  Efflux (2 h): 20%
[1]
  uptake in the mouse pancreas compared with control: much higher
  uptake in the tumor compared with control: much higher
[2]; [5]
  survival: increased survival
[3]
  survival: significantly increased survival
NMB-R; [4]
  GRP-R & NMB-R (binds both with similar affinity): yes
NMB-R
  receptor subtype preference (GRP-R / NMB-R): dual affinity for both GRP-R and NMB-R

## N-[(3β,5β,12α)-3-[[[4,7,10-Tris(carboxymethyl)-1,4,7,10-tetraazacyclododec-1-yl]acetyl]amino]-glycyl-4-aminobenzoyl-L-glutaminyl-L-tryptophyl-L-alanyl-L-valyl-glycyl-L-histidyl-L-phenylalanyl-L-methioninamide [Compound L228]
GRP-R
  competition / activity at GRP-R: maintains GRP-R activity

## N-[4-[[[[[4,7,10-Tris(carboxymethyl)-1,4,7,10-tetraazacyclododec-1-yl]acetyl]amino]acetyl]amino]benzoyl]-L-glutaminyl-L-tryptophyl-L-alanyl-L-valyl-glycyl-L-histidyl-L-leucyl-L-methioninamide [Compound L70]
PC3 cells
  Internalisation (40 minutes): 70%
  Efflux (2 h): 12%
[2]; mouse, in vivo
  survival: increased survival
[3]
  survival: significantly increased survival
NMB-R; [4]
  GRP-R & NMB-R (binds both with similar affinity): yes
NMB-R
  receptor subtype preference (GRP-R / NMB-R): dual affinity

## N-[(3β,5β,12α)-3-[[[4,7,10-Tris(carboxymethyl)-1,4,7,10-tetraazacyclododec-1-yl]acetyl]amino]-4-aminobenzoyl-glycyl-L-glutaminyl-L-tryptophyl-L-alanyl-L-valyl-glycyl-L-histidyl-L-leucyl-L-methioninamide [Compound L204]
NMB-R; Table 10
  Receptor preference in words (cell spanning the GRP-R and GRP-R & NMB-R columns): preference to NMB-R
NMB-R; [4]
  GRP-R & NMB-R (binds both with similar affinity): yes
NMB-R
  receptor subtype preference (GRP-R / NMB-R): selective affinity to NMB-R; also recorded: favor the NMB subtype

## N,N-dimethylglycine-Ser-Cys(Acm)-Gly-N-4-aminoethyl-N-1-piperazineacetic acid-Ser-BBN(7-14) [Compound L28]
NMB-R; [4]
  GRP-R & NMB-R (binds both with similar affinity): yes

## DO3A-Gly-Abz-4-Gln-Trp-Ala-Val-Gly-His-Phe-Leu-NH2 [Compound L300]
GRP-R
  competition / activity at GRP-R: high activity at the GRP-R

## N-[[4,7,10-Tris(carboxymethyl)-1,4,7,10-tetraazacyclododec-1-yl]acetyl]glycyl-4-piperidinecarbonyl-L-glutaminyl-L-tryptophyl-L-alanyl-L-valyl-glycyl-L-histidyl-L-leucyl-L-methioninamide [Compound L74]
NMB-R; [4]
  GRP-R & NMB-R (binds both with similar affinity): yes

## N-[4-[[[[4,7,10-Tris(carboxymethyl)-1,4,7,10tetraazacyclododec-1-yl]acetyl]glycyl]amino]-3-methoxybenzoyl]-L-glutaminyl-L-tryptophyl-1-alanyl-L-valyl-glycyl-L-histidyl-L-leucyl-L-methioninamide [Compound L240]
NMB-R
  receptor subtype preference (GRP-R / NMB-R): selective affinity to GRP-R

## DO3A-monoamide-8-amino-octanoic acid-BBN (7-14) [reference compound]
PC3 cells
  Internalisation (40 minutes): 89%
  Efflux (2 h): 28%

## N-[(3β,5β,12α)-3-[[[4,7,10-Tris(carboxymethyl)-1,4,7,10-tetraazacyclododec-1-yl]acetyl]amino]-glycyl-4-aminobenzoyl-L-glutaminyl-L-tryptophyl-L-alanyl-glycyl-L-histidyl-L-phenylalanyl-L-leucinamide [Compound L224]
GRP-R
  competition / activity at GRP-R: complete loss of binding

## N-[(3β,5β,12α)-3-[[[[[4,7,10-Tris(carboxymethyl)-1,4,7,10-tetraazacyclododec-1-yl]acetyl]amino]acetyl]amino]-[4′-Amino-2′-methyl biphenyl-4-carboxyl]-L-glutaminyl-L-tryptophyl-L-alanyl-L-valyl-glycyl-L-histidyl-L-leucyl-L-methioninamide [Compound L206]
NMB-R; [4]
  GRP-R & NMB-R (binds both with similar affinity): yes

## N-[4-[[[[4,7,10-Tris(carboxymethyl)-1,4,7,10tetraazacyclododec-1-yl]acetyl]glycyl]amino]3-chlorobenzoyl]L-glutaminyl-L-tryptophyl-1-alanyl-L-valyl-glycyl-L-histidyl-L-leucyl-L-methioninamide [Compound L241]
NMB-R; [4]
  GRP-R & NMB-R (binds both with similar affinity): yes
